Measured values: article PMC4062389, “LASSBio-1135: A Dual TRPV1 Antagonist and Anti-TNF-Alpha Compound Orally Effective in Models of Inflammatory and Neuropathic Pain” (PLoS ONE, 2014)

Target: TRPV1 (Rattus norvegicus, UniProt O35433)
Experiment: two-electrode voltage clamp in Xenopus oocytes injected with rat TRPV1 cRNA; inhibition of […] capsaicin current
Assay type: cell-based

TRPV1, sequence (O35433 whole entry): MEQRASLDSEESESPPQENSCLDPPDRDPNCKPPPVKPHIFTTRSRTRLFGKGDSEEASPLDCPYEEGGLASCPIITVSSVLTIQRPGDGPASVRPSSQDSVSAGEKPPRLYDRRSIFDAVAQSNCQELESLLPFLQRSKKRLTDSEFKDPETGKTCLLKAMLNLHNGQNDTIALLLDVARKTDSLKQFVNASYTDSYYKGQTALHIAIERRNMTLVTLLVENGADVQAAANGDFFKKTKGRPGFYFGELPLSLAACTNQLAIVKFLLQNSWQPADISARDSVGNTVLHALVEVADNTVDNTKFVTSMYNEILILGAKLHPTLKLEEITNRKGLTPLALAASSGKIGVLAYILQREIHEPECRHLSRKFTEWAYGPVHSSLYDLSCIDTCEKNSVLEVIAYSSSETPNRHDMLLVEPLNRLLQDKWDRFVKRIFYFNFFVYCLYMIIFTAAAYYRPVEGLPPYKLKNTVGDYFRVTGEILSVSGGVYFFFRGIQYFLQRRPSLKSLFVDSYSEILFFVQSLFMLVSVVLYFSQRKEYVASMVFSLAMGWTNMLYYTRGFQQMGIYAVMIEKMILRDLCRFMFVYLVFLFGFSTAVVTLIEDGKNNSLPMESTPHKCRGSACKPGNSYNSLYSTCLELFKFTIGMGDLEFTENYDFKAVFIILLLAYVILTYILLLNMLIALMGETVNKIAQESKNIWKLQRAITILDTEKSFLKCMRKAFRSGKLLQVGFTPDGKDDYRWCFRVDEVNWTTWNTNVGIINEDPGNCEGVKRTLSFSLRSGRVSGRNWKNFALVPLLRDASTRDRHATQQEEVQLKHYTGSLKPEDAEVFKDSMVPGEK

## LASSBio-1135
  IC50: 580 nM
